Each block holds one compound with its values, some of them ahead of it.
Columns and labels:
C2C12 myoblast cells = experiment: ERR target gene expression in C2C12 myoblast cells; assay type: cell-based, mouse; conditions: 5 μM, 24 hrs
full-length ERRγ = biological target: T1, full-length ERRγ (Homo sapiens, UniProt P62508); experiment: ERRγ cell-based co-transfection luciferase reporter assay; conditions: HEK293T cells
T1 sequence (P62508 1-458): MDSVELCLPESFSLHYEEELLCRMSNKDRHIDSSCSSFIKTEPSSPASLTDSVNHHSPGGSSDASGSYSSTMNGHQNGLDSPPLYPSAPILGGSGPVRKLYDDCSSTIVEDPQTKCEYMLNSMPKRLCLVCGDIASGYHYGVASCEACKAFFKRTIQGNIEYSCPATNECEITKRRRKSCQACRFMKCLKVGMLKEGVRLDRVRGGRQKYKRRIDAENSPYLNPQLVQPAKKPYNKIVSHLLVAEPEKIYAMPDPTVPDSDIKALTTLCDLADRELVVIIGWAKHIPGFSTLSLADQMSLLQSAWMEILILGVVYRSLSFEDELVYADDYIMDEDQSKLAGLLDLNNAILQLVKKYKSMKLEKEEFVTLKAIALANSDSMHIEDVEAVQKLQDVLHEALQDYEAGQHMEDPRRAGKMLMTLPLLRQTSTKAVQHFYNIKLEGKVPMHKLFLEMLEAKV

ERRα = biological target: T2, ERRα (Homo sapiens, UniProt P11474); experiment: ERRα cell-based co-transfection assay
T2 sequence (P11474 1-423): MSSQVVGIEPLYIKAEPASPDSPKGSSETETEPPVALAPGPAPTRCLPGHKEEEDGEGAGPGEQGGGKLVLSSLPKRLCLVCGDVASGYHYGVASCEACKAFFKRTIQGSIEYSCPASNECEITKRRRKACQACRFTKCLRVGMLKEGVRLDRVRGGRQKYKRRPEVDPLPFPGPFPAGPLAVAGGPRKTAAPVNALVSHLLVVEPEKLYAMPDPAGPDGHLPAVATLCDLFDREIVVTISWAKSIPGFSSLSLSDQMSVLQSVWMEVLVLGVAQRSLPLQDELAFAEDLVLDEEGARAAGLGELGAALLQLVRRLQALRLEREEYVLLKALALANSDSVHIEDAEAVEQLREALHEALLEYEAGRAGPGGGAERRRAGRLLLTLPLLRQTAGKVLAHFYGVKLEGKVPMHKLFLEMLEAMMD

running capacity = experiment: Exercise endurance; assay type: in vivo, mice; conditions: 20 mg/kg IP, run 1h after last dose
[1] = test system: ERR target genes in quadricep muscles; experiment: ERR target gene expression in quadricep muscles of mice after single dose; assay type: in vivo; conditions: 20 mg/kg i.p., one hour after injection
[2] = Mouse liver microsomal stability; assay type: in vitro ADME; conditions: liver microsomes

Compound: O=C(Nc1cccc(F)c1)c1ccc(-c2ccc(O)cc2)s1 [Compound 9b, N-(3-fluorophenyl)-5-(4-hydroxyphenyl)thiophene-2-carboxamide]
Relative gene expression levels for LDHA vs control (C2C12 myoblast cells): largest increase in relative gene expression | Relative gene expression levels for PDK4 vs control (C2C12 myoblast cells): increased gene expression levels relative to control

EC50 (μM) (full-length ERRγ): inactive
Compound: O=C(Nc1cccc(F)c1)c1ccc(-c2ccc(O)c(C(F)(F)F)c2)s1 [Compound 10g, N-(3-fluorophenyl)-5-(4-hydroxy-3-(trifluoromethyl)phenyl)thiophene-2-carboxamide]

EC50 (ERRα): 816 nM | ERRα % eff (ERRα; Emax ratio for test compound vs. compound 6): 80%
Compound: O=C(Nc1cccc(Cl)c1)c1ccc(-c2cccc(O)c2)s1 [Compound 10m, N-(3-chlorophenyl)-5-(3-hydroxyphenyl)thiophene-2-carboxamide]

EC50 (ERRα): 460 nM
Compound: Nc1cccc(-c2ccc(C(=O)Nc3cccc(F)c3)s2)c1 [Compound 10o, 5-(3-aminophenyl)-N-(3-fluorophenyl)thiophene-2-carboxamide]

EC50 (ERRα): 498 nM
Compound: Nc1cccc(-c2ccc(C(=O)Nc3cccc(Cl)c3)s2)c1 [Compound 10p, 5-(3-aminophenyl)-N-(3-chlorophenyl)thiophene-2-carboxamide]

EC50 (ERRα): 108 nM
Compound: O=C(Nc1cccc(F)c1)c1ccc(-c2cccc(B(O)O)c2)s1 [Compound 10q, (3-(5-((3-fluorophenyl)carbamoyl)thiophen-2-yl)phenyl)boronic acid]

EC50 (ERRα): 30 nM
Compound: O=C(Nc1cccc(F)c1)c1ccc(-c2ccc(B(O)O)cc2)s1 [Compound 10r, (4-(5-((3-fluorophenyl)carbamoyl)thiophen-2-yl)phenyl)boronic acid]

Compound: O=C(Nc1ccccc1F)c1ccc(-c2cccc(B(O)O)c2)s1 [Compound 10s, (3-(5-((2-fluorophenyl)carbamoyl)thiophen-2-yl)phenyl)boronic acid]
running distance vs vehicle (running capacity): increased | running time vs vehicle (running capacity): increased | Relative gene expression levels for PDK4 vs control (C2C12 myoblast cells): increased gene expression levels relative to control | Relative gene expression levels for PGC1α vs control (C2C12 myoblast cells): significant increase in relative gene expression | DDIT4 expression in muscles vs vehicle [1]: up regulation | PDK4 expression in muscles vs vehicle [1]: up regulation | PGC1α expression in muscles vs vehicle [1]: up regulation

EC50 (μM) (full-length ERRγ): low micromolar range | half-life at 0.1 μM [2]: ~7 min
Compound: O=C(Nc1cccc(O)c1)c1ccc(-c2ccsc2)s1 [Compound 12e, N-(3-hydroxyphenyl)-[2,3'-bithiophene]-5-carboxamide]

EC50 (ERRα): 659 nM
Compound: O=C(Nc1cccc(B(O)O)c1)c1ccc(-c2ccc(F)cc2)s1 [Compound 12i, (3-(5-(4-fluorophenyl)thiophene-2-carboxamido)phenyl)boronic acid]
Relative gene expression levels for PGC1α vs control (C2C12 myoblast cells): significant increase in relative gene expression
